Reference: patent US12090220B2, “Efficient sunscreen compositions with diethylamino hydroxybenzoyl hexyl benzoate, butyl methoxydibenzoylmethane and organic particulate UV filter” (BASF SE, priority 2019, dated 2024)
Structures can show the parent of a compound that is named as a salt.

assay: not given; conditions: general description of the UV filter; cited from earlier work

Row | Compound | absorption maximum
1 | CCCCC(CC)COC(=O)/C=C/c1ccc(OC)cc1 (centres unmarked) [ethylhexyl methoxy cinnamate, 2-Ethylhexyl-(2E)-3-(4-methoxyphenyl)acrylate] | 310 nm
2 | COc1ccc(C(=O)CC(=O)c2ccc(C(C)(C)C)cc2)cc1 [BMDBM, 1-(4-(1,1-dimethylethyl)phenyl)-3-(4-methoxyphenyl)propane-1,3-dione] | 357 nm
3 | c1ccc(-c2ccc(-c3nc(-c4ccc(-c5ccccc5)cc4)nc(-c4ccc(-c5ccccc5)cc4)n3)cc2)cc1 [tris-biphenyl triazine, 2,4,6-Tris(biphenyl-4-yl)-1,3,5-triazine] | 310 nm
4 | CCCCCCOC(=O)c1ccccc1C(=O)c1ccc(N(CC)CC)cc1O [DHHB, hexyl 2-[4-(diethylamino)-2-hydroxybenzoyl]benzoate] | 354 nm

assay: Measurement of interfacial tension (polarity index) of emollients; type: physicochemical; conditions: interfacial tension emollient/water, Tensimat Densimat TD2000
Text: The term “polarity index” refers to non-polar or polar oils. Non-polar oils are mainly based on hydrocarbons and lack an electronegative element, such as oxygen. In contrast, polar oils contain heteroatoms that differ in electronegativity, which results in a dipole moment. However, such oils are still insoluble in water, i.e. hydrophob. The polarity index can be determined by measuring the interfacial tension between the respective oil and water.
Interfacial tension of the respective emollients as listed below was measured using a Tensimat Densimat TD2000.

Row | polarity index | Compound
5 | 19 mN/m | CC(C)OC(=O)CCCCCCCCC(=O)OC(C)C [diisopropyl sebacate]
6 | 7 mN/m | CCOC(=O)CC(O)(CC(=O)OCC)C(=O)OCC [triethyl citrate]
7 | 12 mN/m | CC(C)OC(=O)CCCCC(=O)OC(C)C [diisopropyl adipate]
8 | 10 mN/m | CCCCOC(=O)CC(O)(CC(=O)OCCCC)C(=O)OCCCC [tributyl citrate]
9 | 14 mN/m | CCCCOC(=O)CCCCC(=O)OCCCC [dibutyl adipate]

The next lines start with the compound.

Row | Compound | polarity index
10 | CCCCCCCCCCC(CO)CCCCCCCC (centres unmarked) [octyldodecanol] | 25 mN/m
11 | O=C(OCCc1ccccc1)c1ccccc1 [phenethyl benzoate] | 19 mN/m
